In assay [1] the target is T1, eEF2 (eukaryotic translational elongation factor 2) (Homo sapiens, UniProt P13639). Nature of the assay: SPR (Biacore T200). The class given is binding. On the set-up: eEF2 protein immobilized on a CM5 chip. In general terms: Surface plasmon resonance follows binding to a sensor surface in real time, without labels.
The target in assay [2] is T1, eEF2 (eukaryotic translational elongation factor 2). The assay can be described thus: ITC (KD […]); also SPR (KD […]), CETSA in KYSE510 and […] T cells, GTPase-Glo inhibition of purified eEF2. The class given is binding. On the set-up: eEF2-3 × Flag purified from 293 T cells.

The structures appear in SMILES notation.

As for `O=C(NCCN1CCCC1)c1cc(-c2ccc(CN3CCOCC3)cc2)nc2ccc(F)cc12` [DDD107498], binding in assay [1] was characterised by a dissociation constant (Kd) of 54.1 nM.
Turning to `CC(=O)O[C@@H]1C[C@H](O)[C@@]23CO[C@@H](O)[C@]1(C)[C@@H]2C[C@@H](O)[C@]1(C)[C@@H]3C(=O)[C@H](OC(C)=O)[C@@]2(C)[C@H](c3ccoc3)C[C@H]3O[C@]321` [TSN, Toosendanin], in assay [2], the Kd (usually the concentration at which binding is half-saturated) is approximately 16.6 nM.

For the origin of these results see paper PMC10124032, “Toosendanin targeting eEF2 impedes Topoisomerase I & II protein translation to suppress esophageal squamous cell carcinoma growth” (Journal of Experimental & Clinical Cancer Research : CR, 2023).
